From ChEMBL document CHEMBL1140841, “Synthesis and biological evaluation of trimethyl-substituted cap analogs” (Bioorg Med Chem Lett, 2008)
Calls of active or inactive are those of the source. The calls are words filed in the database; no cut-off is given here.

What was measured:
Escherichia phage T7 = experiment: Effect on Enterobacteria phage T7 RNA polymerase RNA transcription after 2 hrs
[1] = mRNA capping efficiency after 2 hrs by gel shift assay relative to control
HeLa = experiment: Translation efficiency in human HeLa cells assessed as luciferase activity; format: functional, cell-based

Row | Activity (Escherichia phage T7) | Activity [1] | Compound | Activity (HeLa)
1 | Active | 52% | CO[C@@H]1[C@H](O)[C@@H](n2c[n+](C)c3c(=O)[nH]c(N)nc32)O[C@H]1COP(=O)([O-])OP(=O)(O)OP(=O)(O)OC[C@H]1O[C@@H](n2cnc3c(=O)[nH]c(N)nc32)[C@H](O)[C@@H]1O | Active
2 |  | 61% | C[n+]1cn([C@H]2O[C@@H](COP(=O)([O-])OP(=O)(O)OP(=O)(O)OC[C@H]3O[C@@H](n4cnc5c(=O)[nH]c(N)nc54)[C@H](O)[C@@H]3O)[C@H](O)[C@@H]2O)c2nc(N)[nH]c(=O)c21 | 
3 | Active | 56% | C[n+]1cn([C@@H]2O[C@H](COP(=O)(O)OP(=O)([O-])OP(=O)([O-])OC[C@@H]3O[C@H](n4c[n+](C)c5c(=O)[nH]c(N)nc54)[C@@H](O)[C@H]3O)[C@@H](O)[C@H]2O)c2nc(N)[nH]c(=O)c21 | Active
4 | Active | 51% | CO[C@@H]1[C@H](O)[C@@H](n2c[n+](C)c3c(=O)[nH]c(N)nc32)O[C@H]1COP(=O)([O-])OP(=O)(O)OP(=O)([O-])OC[C@H]1O[C@@H](n2c[n+](C)c3c(=O)[nH]c(N)nc32)[C@H](O)[C@@H]1O | Active
